From patent US12605449B2, “Drug-clay mineral complex containing phospholipid and oral administration composition including same” (Korea Institute of Geoscience and Mineral Resources, priority 2020, dated 2026)

What was measured:
Type in all cases: physicochemical
[1] = Camptothecin adsorption to bentonite (supernatant concentration); conditions: camptothecin 0.25 mg/mL in 1 N HCl
Description: The concentration of camptothecin (Tokyo Chemical Industry, TCI) was made at 0.25 mg/mL using a 100% 1 N HCl solvent and the drug and bentonite reacted with each other at various ratios shown in Table 6 below, and then the drug amount adsorbed to bentonite was indirectly measured by measuring the drug concentration of the supernatant.

[2] = Carbamazepine drug release test according to pH; conditions: regardless of pH
Description: In addition, a pattern released at a constant rate at all pHs was shown, and since the release rate of carbamazepine is higher at high pH, it may be inferred that the drug may be easily released from the lower digestive tract.

[3] = Ciprofloxacin adsorption to bentonite (pH and concentration dependence)
[4] = Ciprofloxacin release test using a dialysis membrane (FaSSGF, FaSSIF, FaSSCoF); conditions: complex weight ratio 1:5
Description: The release pattern according to the pH of the complex was confirmed through a release test using a dialysis membrane.

CC[C@@]1(O)C(=O)OCc2c1cc1n(c2=O)Cc2cc3ccccc3nc2-1 [Camptothecin, (S)-4-ethyl-4-hydroxy-1H-pyrano-[3′,4′: 6,7]indolizinol[1,2-b]quinoline-3,14 (4H, 12H)-dione]
Supernatant concentration [1]: 49.7 ± 0.3 µg/mL

NC(=O)N1c2ccccc2C=Cc2ccccc21 [Carbamazepine, 5H-dibenzo[b,f]azepine-5-carboxamide]
time within which most of the drug was released [2]: ≤ 2 h

O=C(O)c1cn(C2CC2)c2cc(N3CCNCC3)c(F)cc2c1=O [ciprofloxacin, 1-cyclopropyl-6-fluoro-1,4-dihydro-4-oxo-7-(1-piperazinyl)-quinoline-3-carboxylic acid]
amount of drug adsorption per bentonite mass ([3]; bentonite 0.5 mg/mL, ciprofloxacin 50-500 μg/mL, pH 1): ≤ 300 mg/g
adsorption amount of ciprofloxacin according to pH ([3]; ciprofloxacin 0.5 mg/mL, bentonite 5 mg/mL, pH 1 to 10, decreased above pH 7): high adsorption
drug adsorption rate ([3]; weight ratio of ciprofloxacin and bentonite 1:5): ~100%
release pattern in FaSSGF, FaSSIF, FaSSCoF [4]: rapidly released under FaSSGF
